The target in one test is T1, guinea pig atrium (β1) (Cavia porcellus, UniProt H0W3H1).
T1 construct: Spontaneously beating right atria were dissected from guinea-pigs; from tissue; host or cells: guinea-pig right atrium (strip including the sinoatrial node)
The experiment in a line: Guinea-pig right atrium test: inhibition of isoprenaline-induced increase in heart rate (β1-adrenergic receptor blocking activity, in vitro). Particulars: isolated right atrium, 30 min incubation, 37.5° C., estimated graphically, read-out: ED50 value on guinea pig atrium (β1) (converted). The method, then:
1. Guinea-pig right atrium (β1)
Spontaneously beating right atria were dissected from guinea-pigs (400±50 g). A triangular strip of atrium, including the sinoatrial node was excised together with the anterior vena cava.
The vena was fixed to a glass muscle holder and the opposite atrial muscle was connected to a Grass isometric transducer. […] Heart rate and contractile force were recorded by means of a Grass FT03C isometric transducer. Output signals amplified by an isometric transducer amplifier (J.S.I.) via a cardiotachometer (J.S.I.) were recorded on Honeywell XYY' recorder.
After washing out isoprenaline a stabilisation period of 15 min. was allowed. A drug was then added to the bath fluid for 30 min. During this incubation period possible direct chronotropic and inotropic effects of the drug were determined. Following this, a second dose-response curve for isoprenaline was produced by infusion during 10 minutes (b). The slope of the increase in rate was graphically estimated for each period of isoprenaline addition and the ratio b/a was calculated. Based on solvent experiments a ratio of less than 0.70 was considered as the criterion of inhibitory activity. ED50 -values were estimated graphically.

Another test has as its target T2, guinea pig trachea (β2) (Cavia porcellus, UniProt Q8K4Z4).
T2 construct: The trachea was dissected from guinea-pigs; from tissue; host or cells: guinea-pig tracheal rings (tracheal smooth muscle)
As to the kind of experiment: Guinea-pig tracheal ring test: inhibition of isoprenaline-induced relaxation (β2-adrenergic receptor blocking activity, in vitro). The conditions noted are these: for β2 /β1: ratio of ED50 trachea (β2) to ED50 right atrium (β1), index of cardioselectivity; for IC50: tracheal ring, methacholine 1 μg/ml, isoprenaline 0.08 μg/ml, 30 min, 35° C., probit analysis, read-out: ED50 value on guinea pig trachea (β2) (converted). From the text: 2. Guinea-pig tracheal ring (β2)
The trachea was dissected from guinea-pigs (400±50 g). Four rings, approximately 8 mm. in width, were then cut from each trachea. Cartilaginous parts of the tracheal ring were mounted horizontally between two metal rods, one of which was attached to a glass organholder, the other rod being connected to a Grass isometric transducer. Using such a technique the tracheal smooth muscle is suspended optimally i.e. midway between the cartilaginous parts. […] The preparation was maintained at tension of 1.5 g throughout the experiment. Tension changes recorded were thus an expression of contraction or relaxation. After a stabilisation period of 30 min. contraction was induced by adding methacholine (1 μg/ml) to the bath for a 10 min. period. […] This procedure was repeated twice before adding the drug (t-33'; t-19') and once 30 min. after addition of the drug. During the incubation period any direct effects of the drug were measured.
The ratio of the ED50 -values obtained in respectively the tracheal ring test (β2) and in the right atrium test (β1) may be considered as an index of the cardioselectivity of the test drug.

Molecules are shown by their SMILES.

T2 sequence (Q8K4Z4 whole entry): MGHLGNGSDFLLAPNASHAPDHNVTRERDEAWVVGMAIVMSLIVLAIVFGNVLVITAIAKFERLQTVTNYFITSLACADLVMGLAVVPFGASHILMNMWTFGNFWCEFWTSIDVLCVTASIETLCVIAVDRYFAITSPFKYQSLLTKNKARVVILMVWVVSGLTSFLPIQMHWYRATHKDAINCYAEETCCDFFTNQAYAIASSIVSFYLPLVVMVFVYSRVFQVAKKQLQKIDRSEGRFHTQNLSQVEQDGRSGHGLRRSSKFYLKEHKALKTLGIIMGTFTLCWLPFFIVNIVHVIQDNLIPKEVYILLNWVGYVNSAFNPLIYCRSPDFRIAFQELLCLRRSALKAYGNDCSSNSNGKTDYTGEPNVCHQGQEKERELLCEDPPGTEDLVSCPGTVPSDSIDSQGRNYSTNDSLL
T1 sequence (H0W3H1 1-470): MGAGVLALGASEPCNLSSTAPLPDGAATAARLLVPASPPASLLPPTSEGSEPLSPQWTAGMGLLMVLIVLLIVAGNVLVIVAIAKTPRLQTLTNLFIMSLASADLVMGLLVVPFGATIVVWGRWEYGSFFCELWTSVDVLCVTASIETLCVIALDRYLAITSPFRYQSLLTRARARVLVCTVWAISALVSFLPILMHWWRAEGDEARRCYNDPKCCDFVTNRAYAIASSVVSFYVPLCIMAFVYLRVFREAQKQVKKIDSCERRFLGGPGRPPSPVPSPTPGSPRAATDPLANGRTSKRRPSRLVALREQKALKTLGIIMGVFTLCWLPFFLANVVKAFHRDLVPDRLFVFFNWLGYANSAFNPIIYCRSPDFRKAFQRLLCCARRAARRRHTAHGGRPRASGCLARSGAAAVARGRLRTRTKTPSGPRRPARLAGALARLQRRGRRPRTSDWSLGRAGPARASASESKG

For `Cc1ccc2c(c1)OC(C(O)CNCC(O)C1CCc3ccccc3O1)CC2` (stereo not drawn) [Compound 99], the IC50 was 1.64 nM on guinea pig atrium (β1) and ≥ 26100 nM on guinea pig trachea (β2). Moreover, the “β2 /β1” value at guinea pig trachea (β2) is on record as ≥ 15,873.

As to `OC(CNCC(O)C1CCc2ccccc2O1)C1CCc2ccccc2O1` (stereo not drawn) [Compound 138, (A,A)-α-[[[2-(3,4-dihydro-2H-1-benzopyran-2-yl)-2-hydroxyethyl]amino]methyl]-3,4-dihydro-2H-1-benzopyran-2-methanol ethanedioate (1:1)], the IC50 is 27.1 nM at guinea pig atrium (β1) and > 27100 nM at guinea pig trachea (β2). Also, the “β2 /β1” value at guinea pig trachea (β2) is given as > 1000.

Turning to `Cc1cc(C)c2c(c1)OC(C(O)CNCC(O)C1CCc3ccccc3O1)CC2` (stereo not drawn) [Compound 103], at guinea pig atrium (β1), the IC50 was 6.29 nM. On guinea pig trachea (β2), the “β2 /β1” value is > 4000 and the IC50 is > 25200 nM.

`CS(=O)(=O)Nc1ccc2c(c1)CCC(C(O)CNCC(O)C1CCc3ccccc3O1)O2` (stereo not drawn) [Compound 135]: the IC50 at guinea pig atrium (β1) was 136 nM.

`Cc1cc(C)c2c(c1)OC(C(O)CNCC(O)C1CCc3ccccc3O1)CC2` (stereo not drawn) [Compound 104]: the figures for the IC50 at guinea pig atrium (β1) and on guinea pig trachea (β2) were 3.27 nM and > 6290 nM, respectively. The “β2 /β1” value at guinea pig trachea (β2) is > 1923.

As to `OC(CNCC(O)C1CCc2cc(Br)ccc2O1)C1CCc2ccccc2O1` (stereo not drawn) [Compound 63], the IC50 on guinea pig atrium (β1) is < 89.2 nM.

Regarding `OC(CNCC(O)C1CCc2ccccc2O1)C1CCc2ccccc2O1` (stereo not drawn) [Compound 83], at guinea pig atrium (β1), the IC50 was 1.25 nM. Further, the “β2 /β1” value on guinea pig trachea (β2) is > 5,435.

Regarding `Cc1ccc2c(c1)OC(C(O)CNCC(O)C1CCc3ccccc3O1)CC2` (stereo not drawn) [Compound 98], the IC50 at guinea pig atrium (β1) was 6.52 nM. At guinea pig trachea (β2), the “β2 /β1” value was 2,400 and the IC50 is 15600 nM.

On to `Cc1ccc2c(c1)CCC(C(O)CNCC(O)C1CCc3ccccc3O1)O2` (stereo not drawn) [Compound 93], for which the IC50 on guinea pig atrium (β1) was 0.417 nM. On guinea pig trachea (β2), the “β2 /β1” value is 13,750 and the IC50 is 5740 nM.

With `OC(CNCC(O)C1CCc2cc(Br)ccc2O1)C1CCc2cc(Br)ccc2O1` (stereo not drawn) [Compound 10, (B,B)-α,α'-[iminobismethylene]bis[6-bromo-3,4-dihydro-2H-1-benzopyran-2-methanol]], the IC50 on guinea pig atrium (β1) is 75.9 nM.

Consider `Cc1ccc2c(c1)CCC(C(O)CNCC(O)C1CCc3ccccc3O1)O2` (stereo not drawn) [Compound 89], for which the IC50 at guinea pig atrium (β1) was 1.12 nM. Besides, on guinea pig trachea (β2), the “β2 /β1” value is 20,698 and the IC50 is 23200 nM.

As for `OC(CNCC(O)C1CCc2ccc3c(c2O1)CCCC3)C1CCc2ccccc2O1` (stereo not drawn) [Compound 110], on guinea pig atrium (β1), the IC50 is 5.9 nM.

Regarding `OC(CNCC(O)C1CCc2ccccc2O1)C1CCc2ccccc2O1` (stereo not drawn) [Compound 76], the IC50 on guinea pig atrium (β1) is 2.3 nM. Further, at guinea pig trachea (β2), the “β2 /β1” value is on record as 2,614 and the IC50 is 5950 nM.

With `Cc1cc(C)c2c(c1)OC(C(O)CNCC(O)C1CCc3ccccc3O1)CC2` (stereo not drawn) [Compound 106], the “β2 /β1” value at guinea pig trachea (β2) is > 1000.

For the compound `Cc1ccc2c(c1)CCC(C(O)CNCC(O)C1CCc3cc(C)ccc3O1)O2` (stereo not drawn) [Compound 113], the IC50 on guinea pig atrium (β1) is 6.29 nM.

Regarding `OC(CNCC(O)C1CCc2ccccc2O1)C1CCc2ccccc2O1` (stereo not drawn) [Compound 79], the figures for the IC50 on guinea pig atrium (β1) and on guinea pig trachea (β2) were 0.514 nM and 6770 nM, respectively. In addition, the “β2 /β1” value at guinea pig trachea (β2) is on record as 13,157.

On to `Oc1ccc2c(c1)CCC(C(O)CNCC(O)C1CCc3cc(O)ccc3O1)O2` (stereo not drawn) [Compound 133], for which the IC50 on guinea pig atrium (β1) was 1.57 nM.

On to `N#Cc1ccc2c(c1)CCC(C(O)CNCC(O)C1CCc3ccccc3O1)O2` (stereo not drawn) [Compound 51], for which the IC50 was 6.34 nM at guinea pig atrium (β1) and > 1600 nM on guinea pig trachea (β2). Also, on guinea pig trachea (β2), the “β2 /β1” value is given as > 252.

As to `OC(CNCC(O)C1CCc2ccccc2O1)C1CCc2ccccc2O1` (stereo not drawn) [Compound 74, (A^+ A^+)-α,α'-[iminobis(methylene)]bis[3,4-dihydro-2H-1-benzopyran-2-methanol]], the IC50 at guinea pig atrium (β1) is 0.65 nM. For the same compound, at guinea pig trachea (β2), the “β2 /β1” value is reported as 12,500 and the IC50 is 8120 nM.

`OC(CNCC(O)C1CCc2ccccc2O1)C1CCc2ccccc2O1` (stereo not drawn) [Compound 88]: the IC50 at guinea pig trachea (β2) was ≥ 27100 nM.

As to `Cc1ccc2c(c1)OC(C(O)CNCC(O)C1CCc3ccccc3O1)CC2` (stereo not drawn) [Compound 97], the IC50 at guinea pig atrium (β1) is 1.85 nM. In addition, on guinea pig trachea (β2), the “β2 /β1” value was 7,042 and the IC50 is 13000 nM.

`OC(CNCC(O)C1CCc2cc(F)ccc2O1)C1CCc2cc(F)ccc2O1` (stereo not drawn) [Compound 84]: the IC50 on guinea pig trachea (β2) was > 24700 nM.

In the case of `Cc1ccc2c(c1)CCC(C(O)CNCC(O)C1CCc3ccccc3O1)O2` (stereo not drawn) [Compound 90], the IC50 on guinea pig atrium (β1) was 1.04 nM; on guinea pig trachea (β2), ≥ 26100 nM. Besides, on guinea pig trachea (β2), the “β2 /β1” value was ≥ 25,000.

`OC(CNCC(O)C1CCc2ccccc2O1)C1CCc2ccccc2O1` (stereo not drawn) [Compound 82]: the IC50 at guinea pig atrium (β1) is 6.77 nM. At guinea pig trachea (β2), the “β2 /β1” value was > 1,000 and the IC50 was > 6770 nM.

In the case of `CC(O)(CNCC(O)C1CCc2ccccc2O1)C1CCc2ccccc2O1` (stereo not drawn) [Compound 92], on guinea pig atrium (β1), the IC50 was 1.04 nM. Moreover, on guinea pig trachea (β2), the “β2 /β1” value is 12,500 and the IC50 is 13000 nM.

Take `OC(CNCC(O)C1CCc2cc(F)ccc2O1)C1CCc2ccccc2O1` (stereo not drawn) [Compound 91]: the IC50 on guinea pig atrium (β1) is 2.06 nM. Moreover, at guinea pig trachea (β2), the “β2 /β1” value is reported as 6,250 and the IC50 was 12900 nM.

On to `CC(=O)Nc1ccc2c(c1)CCC(C(O)CNCC(O)C1CCc3ccccc3O1)O2` (stereo not drawn) [Compound 96], for which the figures for the IC50 at guinea pig atrium (β1) and at guinea pig trachea (β2) were 3.05 nM and 328 nM, respectively. For the same compound, the “β2 /β1” value on guinea pig trachea (β2) is on record as 108.

`OC(CNCC(O)C1CCc2ccccc2O1)C1CCc2ccccc2O1` (stereo not drawn) [Compound 77]: the IC50 at guinea pig atrium (β1) was 1.46 nM. Besides, the “β2 /β1” value at guinea pig trachea (β2) is listed as 4,074.

`CC1(C(O)CNCC(O)C2CCc3ccccc3O2)CCc2ccccc2O1` (stereo not drawn) [Compound 140, (A,B)-α-[[[2-(3,4-dihydro-2H-1-benzopyran-2-yl)-2-hydroxyethyl]amino]methyl]-3,4-dihydro-2-methyl-2H-1-benzopyran-2-methanol ethanedioate (1:1). monohydrate]: the IC50 on guinea pig atrium (β1) was ≤ 6.52 nM.

On to `OC(CNCC(O)C1CCc2ccccc2O1)C1CCc2ccccc2O1` (stereo not drawn) [Compound 75], for which the IC50 at guinea pig atrium (β1) was 3.52 nM; on guinea pig trachea (β2), 7580 nM. On guinea pig trachea (β2), the “β2 /β1” value was 2,154.

Regarding `Oc1ccc2c(c1)CCC(C(O)CNCC(O)C1CCc3ccccc3O1)O2` (stereo not drawn) [Compound 130], the IC50 on guinea pig atrium (β1) was 0.804 nM; on guinea pig trachea (β2), 804 nM. In addition, the “β2 /β1” value at guinea pig trachea (β2) was determined as 1000.

Consider `CC(=O)Nc1ccc2c(c1)CCC(C(O)CNCC(O)C1CCc3ccccc3O1)O2` (stereo not drawn) [Compound 94], for which, at guinea pig atrium (β1), the IC50 is ≥ 5.86 nM.

Consider `OC(CNCC(O)C1CCc2ccccc2O1)C1CCc2ccccc2O1` (stereo not drawn) [Compound 81], for which the values for the IC50 at guinea pig atrium (β1) and at guinea pig trachea (β2) were 0.433 nM and 1710 nM, respectively. In addition, the “β2 /β1” value on guinea pig trachea (β2) is 3,938.

As for `CC(=O)Nc1ccc2c(c1)CCC(C(O)CNCC(O)C1CCc3ccccc3O1)O2` (stereo not drawn) [Compound 95], the IC50 at guinea pig atrium (β1) is 0.727 nM; on guinea pig trachea (β2), 93.8 nM. The “β2 /β1” value at guinea pig trachea (β2) worked out at 129.

Consider `Cc1ccc2c(c1)CCC(C(O)CNCC(O)C1CCc3cc(C)ccc3O1)O2` (stereo not drawn) [Compound 85], for which the IC50 at guinea pig atrium (β1) was 0.579 nM. Besides, at guinea pig trachea (β2), the “β2 /β1” value is 5,652 and the IC50 is 3270 nM.

Turning to `CC(O)(CNCC(C)(O)C1CCc2ccccc2O1)C1CCc2ccccc2O1` (stereo not drawn) [Compound 86], the IC50 on guinea pig atrium (β1) was 3.02 nM. Besides, on guinea pig trachea (β2), the “β2 /β1” value was 4,166 and the IC50 was 12600 nM.
